Like-named read-outs stand apart in the source and are kept apart here.
Assays:
[1] = system: classical pathway; antibody sensitized sheep erythrocyte cells; assay: Classical pathway hemolytic assay (RBC hemolysis assay); assay type: cell-based, human
Protocol: Inhibition of the classical pathway by the peptides was measured using a standard hemolysis assay, which monitors the lysis of sheep erythrocytes as a result of terminal complex formation (see e.g. FIG. 1, FIG. 10). Various concentrations of peptide were incubated with 50 μL pooled human plasma (diluted 1:30 with GVB^++), 5×10^7 antibody sensitized sheep erythrocyte cells, and GVB^++ buffer to a final volume of 200 μL. The reaction was incubated at 37° C. for one hour and centrifuged. The percentage of lysis was determined by measuring the optical density of the supernatant at 414 nm. 100% lysis was determined by the optical density at 414 nm of the supernatant from a control sample consisting of 5×10^7 antibody sensitized sheep erythrocyte cells in water. The percent inhibition was calculated as the (% lysisno peptide−% lysispeptide)/% lysisno peptide×100.

classical pathway = assay: Classical pathway component assay (immune complex, ELISA for C5a, SC5b-9, C3a); assay type: biochemical, human; conditions: for complement inhibiting activity (C5a and SC5b-9 production), alanine scan of Peptide 7: immune complex-classical pathway assay, compared with Peptide 7
Protocol: The inhibition of the classical pathway by the peptides was measured by incubating human plasma in the presence and absence of peptides with an immune complex generated on a surface and then monitoring for the production of complement components C5a, SC5b-9, and C3a. To generate the immune complex, a 10 mg/mL solution of BSA in PBS was incubated at 56° C. for 30 minutes and then used to coat the surface of a microplate by diluting to 50 μg/mL at pH 9.6 and incubating for one hour at 37° C. The plate was washed and then incubated with 18 μg/mL mouse anti-BSA IgG2a (Sigma) for one hour at 37° C. Pooled human plasma with and without various concentrations of peptide were incubated for 30 minutes at 37° C. with the generated immune complex and the reaction was stopped with the addition of EDTA. The plasma samples were then analyzed with commercially available ELISA's for the production of C5a (Pharmingen), SC5b-9 (Quidel), and C3a (Quidel).

[2] = system: complement system activated by zymosan; assay: Alternative activation pathway zymosan assay (ELISA for C5a, SC5b-9, C3a); assay type: biochemical; conditions: 2 mg/mL zymosan, human plasma
Protocol: The peptides were evaluated for involvement in activation of the complement system by the presence of zymosan. Zymosan, or yeast cell wall, has largely been described as an alternative pathway activator. In addition, there are sugars on the surface of the yeast cell wall which are capable of activating the lectin pathway. Therefore, zymosan can be considered as a general complement activator.
Varying concentrations of peptide were incubated with 2 mg/mL zymosan in pooled human plasma. The reactions were incubated at 37° C. for one hour and then stopped by the addition of EDTA. The samples were centrifuged, the plasma removed, and analyzed with commercially available ELISA's for the production of C5a (Pharmingen), SC5b-9 (Quidel), and C3a (Quidel).

alternative pathway = assay: Alternative activation pathway C.A. membrane assay (ELISA for C5a, SC5b-9, C3a); assay type: biochemical; conditions: cellulose acetate hemodialysis membrane, human plasma
Protocol: Inhibition of the alternative pathway by the peptides was determined by incubating pooled human plasma in the presence and absence of various concentrations of peptide with 20 mg of cellulose acetate hemodialysis membrane at 37° C. for one hour. The reaction was stopped with EDTA and then the samples were analyzed with commercially available ELISA's for the production of C5a (Pharmingen), SC5b-9 (Quidel), and C3a (Quidel).

complement component C5 = biological target: T1, complement component C5 (Homo sapiens, UniProt P01031); assay: Phage clone binding to C5 and free-peptide competition assay
T1 construct: purchased Advanced Research Technologies
Protocol: Peptides were identified by panning an M13 phage library (New England Biolabs), a random 12mer peptide library with a diversity of 10^11 different peptide structures, against complement component C5. The phage library was panned against C5 using three different methods for immobilizing C5. The binding reactions all contained 2×10^11 phage particles in PBS containing 0.5% BSA and 0.3% Tween 20. The binding reactions were carried out at 25° C. for two hours and then unbound phage were removed by washing 5 times with PBS containing 0.5% BSA and 0.3% Tween20. The phage were eluted by acid (0.2 M Glycine pH 2.2, 1 mg/mL BSA) and immediately neutralized with 1 M Tris pH 9.1. Following elution, recovered phage were amplified in ER2738 E. coli (NEB) and subjected to two more rounds of panning as described above. The methods for immobilizing C5 include directly coating C5 (Advanced Research Technologies) to the surface (1 μg/mL), capturing biotinylated C5 (1 μg/mL) on a neutravidin (Pierce) coated surface, and capturing biotinylated C5a (1 μg/mL) on a neutravidin (Pierce) coated surface. C5 and C5a (Quidel) were biotinylated by incubating with 10 fold molar excess of Sulfo-NHS-LC-LC-Biotin for 2 hours at room temperature at pH 7.4 and then removing excess biotin by gel filtration. A negative selection was performed in the final round against neutravidin for the two latter screening methods. DNA from twenty randomly selected clones from each of the three final libraries was isolated and sequenced.
The binding sites of the peptides were further probed via C5-binding competition assays. Increasing concentrations of each phage clone were incubated for 2 hours with 200 ng of biotinylated C5 in PBS containing 0.5% BSA. The phage bound C5 complex was captured on a neutravidin coated microplate for 20 minutes at room temperature and then washed with PBS containing 0.5% BSA. A peroxidase labeled anti-M13 antibody (Pharmacia) was used to detect the amount of phage bound to C5 with OPD substrate. Competition assays with free peptide were carried out in a similar manner except that one concentration of each phage clone was used which was determined as the concentration giving approximately 50% binding in the previous titration. Free peptide was added to the phage clones at concentrations of 50, 10 and 1 μM and incubated with the biotinylated C5 and the assay was carried out as above.

[3] = classical pathway, immune complex, human plasma

T1 sequence (P01031 19-1676): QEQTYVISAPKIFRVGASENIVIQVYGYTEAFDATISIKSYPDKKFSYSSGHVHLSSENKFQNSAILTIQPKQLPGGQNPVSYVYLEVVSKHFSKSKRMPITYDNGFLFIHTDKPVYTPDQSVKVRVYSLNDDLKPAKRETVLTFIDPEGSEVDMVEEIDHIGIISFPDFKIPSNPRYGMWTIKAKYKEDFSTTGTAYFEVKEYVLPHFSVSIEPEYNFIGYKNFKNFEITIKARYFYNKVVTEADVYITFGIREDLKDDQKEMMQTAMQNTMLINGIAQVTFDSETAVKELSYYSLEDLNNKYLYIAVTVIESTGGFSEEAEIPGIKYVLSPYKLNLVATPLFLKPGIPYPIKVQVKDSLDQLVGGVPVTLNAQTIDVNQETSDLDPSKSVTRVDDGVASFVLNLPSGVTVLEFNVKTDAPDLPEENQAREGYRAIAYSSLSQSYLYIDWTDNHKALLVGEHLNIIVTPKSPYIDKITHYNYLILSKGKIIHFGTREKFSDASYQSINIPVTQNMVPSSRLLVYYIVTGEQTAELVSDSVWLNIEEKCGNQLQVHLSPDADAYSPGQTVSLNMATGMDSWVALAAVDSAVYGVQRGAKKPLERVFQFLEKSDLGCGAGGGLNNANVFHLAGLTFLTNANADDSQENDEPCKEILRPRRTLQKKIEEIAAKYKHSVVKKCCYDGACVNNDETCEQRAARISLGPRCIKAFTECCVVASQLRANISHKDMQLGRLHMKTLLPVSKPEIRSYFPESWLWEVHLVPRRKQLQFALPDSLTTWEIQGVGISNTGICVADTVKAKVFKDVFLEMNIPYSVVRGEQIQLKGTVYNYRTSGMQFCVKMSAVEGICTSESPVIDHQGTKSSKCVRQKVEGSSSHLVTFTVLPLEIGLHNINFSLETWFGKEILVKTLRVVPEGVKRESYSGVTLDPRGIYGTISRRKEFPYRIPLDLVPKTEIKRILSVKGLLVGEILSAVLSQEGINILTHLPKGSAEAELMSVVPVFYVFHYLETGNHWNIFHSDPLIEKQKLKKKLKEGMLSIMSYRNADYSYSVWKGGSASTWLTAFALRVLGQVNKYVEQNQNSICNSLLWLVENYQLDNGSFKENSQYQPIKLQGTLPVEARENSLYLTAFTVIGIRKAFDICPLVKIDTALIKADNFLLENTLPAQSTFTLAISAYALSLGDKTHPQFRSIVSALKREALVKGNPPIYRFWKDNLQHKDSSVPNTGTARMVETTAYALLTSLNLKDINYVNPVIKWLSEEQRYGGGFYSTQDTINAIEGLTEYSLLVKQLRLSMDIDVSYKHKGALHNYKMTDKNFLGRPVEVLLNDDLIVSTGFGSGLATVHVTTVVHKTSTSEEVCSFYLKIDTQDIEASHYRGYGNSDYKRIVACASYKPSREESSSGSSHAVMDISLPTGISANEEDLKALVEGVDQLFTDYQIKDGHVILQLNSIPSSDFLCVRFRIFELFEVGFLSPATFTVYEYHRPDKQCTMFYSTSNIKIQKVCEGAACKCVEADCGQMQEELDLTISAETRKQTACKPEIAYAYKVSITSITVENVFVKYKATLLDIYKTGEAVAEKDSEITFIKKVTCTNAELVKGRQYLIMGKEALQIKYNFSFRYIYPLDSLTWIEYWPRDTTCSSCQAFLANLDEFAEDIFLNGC

Substance | inhibitory activity in RBC hemolysis assay compared with parent peptide [1] | other results
Peptide 90: Peptide 46 derivative with isoleucine at X1 (TAIVRWEFPL; complement inhibitor) | almost comparable activity | –
Peptide 54: Peptide 50 with asparagine substituted for the aspartic acid residue (NNRWEFPL; complement inhibitor) | little effect on the inhibitory activity | –
115: Peptide 46 with a tri-peptide substituted for X1, third amino acid glutamic acid (LAEVRWEFPL; complement inhibitor) [Peptide 115] | enhanced the levels of inhibitory activity | –
18: Peptide 7 with alanine substituted for a residue L on the amino-terminal side of the consensus sequence (SFNDALWRWEWP; complement inhibitor) [Peptide 18] | – | complement inhibiting activity (C5a and SC5b-9 production), alanine scan of Peptide 7 (classical pathway): slightly greater inhibitory activity
Peptide 91: Peptide 46 derivative with leucine at X1 (TALVRWEFPL; complement inhibitor) | almost comparable activity | –
120: Peptide 46 with a tri-peptide substituted for X1, third amino acid glutamic acid (TLEVRWEFPL; complement inhibitor) [Peptide 120] | enhanced the levels of inhibitory activity | –
TQDNRWEFPLRV [Peptide 13] | almost comparable activity | C3a generation [2]: no observeable effect; C5a production [2]: inhibited; SC5b-9 production [2]: inhibited; C3a production (alternative pathway): no effect; C5a generation (alternative pathway): dose-dependent inhibition; SC5b-9 generation (alternative pathway): dose-dependent inhibition; competition among phage clones and free peptides for binding to C5 (complement component C5; free peptide at 50, 10 and 1 μM): significant competition; specific binding to complement component C5 (complement component C5; phage panning / phage clone binding): specifically bound complement component C5; C3a production (classical pathway; [3]): neither of these peptides produced an effect; C5a production (classical pathway; [3]): dose-dependent increase in the inhibition; SC5b-9 production (classical pathway; [3]): dose-dependent increase in the inhibition; inhibition of hemolysis ([1]; 100 uM peptide): significant inhibition of hemolysis
Peptide 53: Peptide 50 with glutamic acid substituted for the aspartic acid at position 1 (ENRWEFPL; complement inhibitor) | appeared to increase the inhibitory activity | –
Peptide 61: Peptide 50 with tyrosine substituted for the phenylalanine at position 6 (DNRWEYPL; complement inhibitor) | minimal loss of activity | –
Peptide 56: Peptide 50 with arginine at position 3 changed to histidine (DNHWEFPL; complement inhibitor) | lowers the inhibiting activity | –
Peptide 84: Peptide 46 derivative with a glutamic acid at X1 (TAEVRWEFPL; complement inhibitor) | highest level of inhibitory activity | inhibitory activity in RBC hemolysis assay compared with parent peptide ([1]; listed as SEQ ID NO 84): enhanced the levels of inhibitory activity
Peptide 95: Peptide 46 derivative with proline at X1 (TAPVRWEEPL; complement inhibitor) | almost comparable activity | –
20: Peptide 7 with alanine substituted for residue W on the amino-terminal side of the consensus sequence (SFNDLLARWEWP; complement inhibitor) [Peptide 20] | – | complement inhibiting activity (C5a and SC5b-9 production), alanine scan of Peptide 7 (classical pathway): slightly greater inhibitory activity
112: Peptide 46 with a tri-peptide substituted for X1, third amino acid glutamic acid (EAEVRWEFPL; complement inhibitor) [Peptide 112] | enhanced the levels of inhibitory activity | –
Peptide 50: eight-mer: Peptide 13 with two amino acids removed from both ends (DNRWEFPL; complement inhibitor) | – | original activity retained in RBC hemolysis assay ([1]; relative to Peptide 13): 100%
119: Peptide 46 with a tri-peptide substituted for X1, third amino acid glutamic acid (TTEVRWEFPL; complement inhibitor) [Peptide 119] | enhanced the levels of inhibitory activity | –
Peptide 46: 10-mer: Peptide 13 with the two residues removed from the carboxyl terminus (TQDNRWEFPL; complement inhibitor) | appears to increase the activity | –
19: Peptide 7 with alanine substituted for a residue L on the amino-terminal side of the consensus sequence (SFNDLAWRWEWP; complement inhibitor) [Peptide 19] | – | complement inhibiting activity (C5a and SC5b-9 production), alanine scan of Peptide 7 (classical pathway): slightly greater inhibitory activity
Peptide 60: Peptide 50 with tryptophan replacing the phenylalanine at X4 (DNRWEWPL; complement inhibitor) | more severe losses | –
Peptide 83: Peptide 46 derivative with a glutamic acid at X1; listed in both the X2 and X1 series (AAEVRWEFPL; complement inhibitor) | highest level of inhibitory activity | –
Peptide 64: Peptide 50 with leucine replacing the phenylalanine at X4 (DNRWELPL; complement inhibitor) | more severe losses | –
Peptide 55: Peptide 50 with arginine at position 3 changed to lysine (DNKWEFPL; complement inhibitor) | lowers the inhibiting activity | –

From patent publication US7348401B2, “Peptides that inhibit complement activation” (priority 2003, dated 2008)
